Laboratory results: BindingDB's records for doi:10.1016/s0960-894x(02)00471-7 (Universita' Di Firenze, 2002)

Target: T1, Substance-K receptor (Homo sapiens, UniProt P21452)
T1 sequence (P21452 whole entry): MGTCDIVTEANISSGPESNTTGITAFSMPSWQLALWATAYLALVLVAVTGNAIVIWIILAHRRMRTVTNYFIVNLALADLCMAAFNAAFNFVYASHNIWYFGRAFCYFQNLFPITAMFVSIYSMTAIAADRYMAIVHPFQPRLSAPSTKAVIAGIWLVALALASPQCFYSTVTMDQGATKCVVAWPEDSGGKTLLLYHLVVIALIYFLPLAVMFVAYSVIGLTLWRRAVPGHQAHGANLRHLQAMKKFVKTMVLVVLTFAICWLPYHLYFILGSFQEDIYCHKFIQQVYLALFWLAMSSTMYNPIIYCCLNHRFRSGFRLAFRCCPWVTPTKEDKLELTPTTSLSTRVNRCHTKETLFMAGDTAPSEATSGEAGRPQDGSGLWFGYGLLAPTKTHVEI
Experiment: ChEBML_209037
Excerpt: Displacement of [125I]NKA from human Tachykinin receptor 2 expressed in CHO cells

- Ki: 0.79 µM
SMILES: CCOC(=O)C1C(C)OC2OC(COCc3ccccc3)C(OCc3ccccc3)C(=O)C2[S+]1[O-] (stereo unspecified) [7-Benzyloxy-6-benzyloxymethyl-8-hydroxy-3-methyl-1-oxo-6,7,8,8a-tetrahydro-1H,4aH-4,5-dioxa-1lambda*4*-thia-naphthalene-2-carboxylic acid ethyl ester]
